Results taken from patent US10934253B2, “Therapeutic compounds and methods” (UNIVERSITY OF TASMANIA, priority 2017, dated 2021).

Key:
Assay type in all cases: cell-based
HepG2 cells [1] = assay: Cell viability in the presence of a mitochondrial inhibitor (rotenone 10 μM); conditions: Homo sapiens, HepG2, 48 h, read-out: CELL VIABILITY [%]
Experimental: (§1) Cytoprotection of HepG2 cells by naphthoquinones was quantified in the presence of the mitochondrial toxin, rotenone. Briefly, HepG2 cells were seeded in 96-well plates at 5000 cells/well in DMEM with 0.3 g/l glucose, 10% FBS and Penicillin-Streptomycin-Glutamine. After overnight incubation under standard conditions, cells were treated with the test compounds (10 μM) for 2 days before cells were challenged with 1 μM rotenone in the presence of 10 μM test compounds in Hank's balanced salt solution (HBSS) for 6 hours. This was followed by post-incubation for an additional 18 hours with only 10 μM test compounds in HBSS. For measurement of cell viability, cells were washed with 100 μL PBS twice and then lysed using 40 μL lysis solution (4 mM EDTA, 0.2% Triton X-100) for 5 min at room temperature (RT) on an orbital shaker at 200 rpm. Then 10 μL of the lysate was mixed with 90 μL of enzyme-substrate mixture (as described above) in a white 96 well plate and luminescence was measured immediately using a plate-reader (Fluoroscan Ascent, Thermo Scientific). The data is expressed as % viability compared to the untreated (no-rotenone) control.
The cytoprotective effects of representative compounds of Formula (I) were further examined in vitro in response to rotenone toxicity at (10 μM). […] Cells were treated with the representative compounds of Formula (I) compounds (10 μM) for 2 days before cells were challenged with 10 μM rotenone.
Vitamin K, Menadione and Idebenone were used as comparative controls.

HepG2 cells [2] = assay: Acute ATP rescue assay (impaired mitochondrial function, rotenone); conditions: for activity at 1 µM: Homo sapiens, 1 h, HepG2, 1 μM quinones with rotenone 10 μM, 60 minutes, glucose-free DMEM, % ATP compared to untreated (no-rotenone) control
Experimental: HepG2 cells were seeded at a density of 5000 cells per well in a 96-well plate and incubated for 24 hours in DMEM with 0.3 g/l glucose, 10% FBS and Penicillin-Streptomycin-Glutamine. Cells were treated with 1 μM quinones in presence or absence of rotenone (10 μM), for 60 minutes in glucose-free DMEM ATP levels were quantified using luminescence from the ATP-dependent enzymatic oxidation of luciferin by luciferase. Cells were lysed in a volume of 40 μl (4 mM EDTA, 0.2% Triton X-100) for five minutes at room temperature (RT) on an orbital shaker at 200 rpm. […] Luminescence was quantified immediately using a multimode plate reader (Fluoroscan Ascent, Thermo Scientific). ATP levels were standardized to protein levels using a commercial BCA assay (Protein DC; BioRad) and changes were calculated as percentage relative to levels of DMSO-treated control cells. Data is expressed as % ATP compared to the untreated (no-rotenone) control.
Vitamin K, menadione and idebenone were used as comparative controls. DMSO was used as a control.

HepG2 cells [3] = assay: Extracellular lactate levels, enzyme-linked colorimetric assay; conditions: HepG2 culture medium; for Extracellular lactate [% control]: 25 mM glucose, supernatant after 48 h, standardized to protein
Experimental: Lactate concentrations in culture medium were determined by an enzyme-linked colorimetric assay. Briefly, 150,000 HepG2 cells were seeded in normal growth media (DMEM, 10% FCS, Pen/Strep) in each well of a 6-well plate (Life Science, USA) and incubated for 24 h. The media was replaced with growth media containing (25 mM glucose,) with and without test compounds. Three untreated wells containing only cells were considered the experimental baseline control and all compounds were tested in three different wells simultaneously. Supernatants were collected after 48 h and transferred into 96-well format. After the addition of 90 μl of reaction buffer (10 mM KH2PO4 pH 7.8, 1 mg/ml BSA, 0.5 mM PMS, 2 mM EDTA, 0.6 mM DCPIP, 0.8 mM NAD+, 5 U/ml glutamate-pyruvate-transaminase, 1.5 mM glutamate, 12.5 U/ml lactate dehydrogenase) the plate was incubated at 30° C. inside a multimode plate reader (Multiscan Go, Thermo Scientific) and absorbance was measured at 600 nm over a period of 100 minutes. A standard curve was generated using media spiked with known lactate concentrations. Finally, protein levels were quantified and the lactate concentration of each well was standardized to its protein content and was then expressed as % of control.
The extent of lactate reduction in the cell culture media by the test compounds of the subject invention and the Comparative Compounds vitamin K, menadione and idebenone is shown below in Table 6.

HepG2 cells [4] = assay: Rescue of cell viability in the presence of a mitochondrial inhibitor (rotenone 1 μM); conditions: Homo sapiens, HepG2
Experimental: as §1
The extent of protection of cellular viability against a rotenone challenge of representative compounds of Formula (I) is shown below in Table 5. Vitamin K, Menadione and Idebenone were used as comparative controls. DMSO was used as a control.

Row | SMILES | viability at 10 µM (HepG2 cells [1]) [%] | activity at 1 µM (HepG2 cells [2]) [%] | viability at 10 µM (HepG2 cells [4]) [%] | also measured
1 | CC1=C(CCC(C)O)C(=O)c2ccccc2C1=O (centres unmarked) [UTA #24] | 72.8 | – | – | –
2 | O=C(CCCC1=CC(=O)c2ccccc2C1=O)NCCc1ccc(O)cc1 [UTA #113] | 73.4 | – | – | –
3 | CC1=C(CCCCC(=O)O)C(=O)c2ccccc2C1=O [UTA #67, 25-(3-methyl-1,4-naphthoquinone-2-yl)pentanoic acid] | 74.9 | 97.1 | – | Extracellular lactate [% control] (HepG2 cells [3]): 67.6 % control
4 | CC1=C(CCCC(=O)N[C@H](CO)c2ccccc2)C(=O)c2ccccc2C1=O [UTA #81] | 83.8 | – | 83.8 | –
5 | CC1=C(CCCC(=O)NCCc2ccc(O)cc2)C(=O)c2ccccc2C1=O [UTA #74, N-(4-hydroxyphenethyl)-4-(3-methyl-1,4-naphthoquinone-2-yl)butanamide] | 91.7 | 101 | 91.7 | –
6 | COC(=O)C(Cc1ccccc1)NC(=O)CCCC1=C(C)C(=O)c2ccccc2C1=O (stereo in doubt) [UTA #35, (R)-methyl-2(4-(3-methyl-1,4-naphthoquinone-2-yl)butamido)-3-phenylpropanoate] | 76.2 | – | – | –
7 | CC1=C(CCC2CCCC2)C(=O)c2ccccc2C1=O [UTA #22] | – | – | – | Extracellular lactate [% control] (HepG2 cells [3]): 73 % control
8 | CC1=C(CCCCCC(=O)N[C@@H](Cc2ccccc2)C(=O)O)C(=O)c2ccccc2C1=O [UTA #76] | 68.1 | – | – | –
9 | CC1=C(CCCCCC(=O)N[C@H](CO)Cc2ccccc2)C(=O)c2ccccc2C1=O [UTA #84] | 74.4 | 90.4 | – | –
10 | CCCCNC(=O)CCCC1=C(C)C(=O)c2ccccc2C1=O [UTA #91] | 82 | – | 82 | –
11 | O=C(CCCC1=CC(=O)c2ccccc2C1=O)N[C@@H](Cc1ccccc1)C(=O)O [UTA #117] | 80.3 | – | 80.3 | –
12 | CC1=C(CCCC(=O)N[C@@H](CC(C)C)C(=O)O)C(=O)c2ccccc2C1=O [UTA #54] | 98.7 | – | 98.7 | Extracellular lactate [% control] (HepG2 cells [3]): 79.1 % control
13 | CC1=C(CCCC(=O)N[C@H](Cc2ccccc2)C(=O)O)C(=O)c2ccccc2C1=O [UTA #94] | 71.7 | – | – | –
14 | COC(=O)[C@H](NC(=O)CCCC1=C(C)C(=O)c2ccccc2C1=O)c1ccccc1 [UTA #97] | 84.8 | – | 84.8 | –
15 | CC1=C(CCCC(=O)N2CCC[C@H]2CO)C(=O)c2ccccc2C1=O [UTA #61, (S)-2-(4-(2-(hydroxymethyl)pyrrolidin-1-yl)-4-oxobutyl)-3-methyl-1,4-naphthoquinone] | 101 | – | 101 | –
16 | CC1=C(CCCC(=O)NCCc2c[nH]c3ccccc23)C(=O)c2ccccc2C1=O [UTA #73, N-(2-(1H-indol-3-yl)ethyl)-4-(3-methyl-1,4-naphthoquinone-2-yl)butanamide] | 86.2 | 96.1 | 86.2 | –
17 | CC1=C(CCC(=O)N[C@@H](Cc2ccccc2)C(=O)O)C(=O)c2ccccc2C1=O [UTA #66] | 66.9 | – | – | Extracellular lactate [% control] (HepG2 cells [3]): 66 % control
18 | O=C(CCCC1=CC(=O)c2ccccc2C1=O)N[C@H](CO)Cc1ccccc1 [UTA #115] | 80.8 | – | 80.8 | –
19 | CC1=C(CCCCC(=O)N[C@@H](Cc2ccccc2)C(=O)OC(C)(C)C)C(=O)c2ccccc2C1=O [UTA #71] | 70.5 | 92.2 | – | –

Row | SMILES | viability at 10 µM (HepG2 cells [1]) [%] | activity at 1 µM (HepG2 cells [2]) [%] | viability at 10 µM (HepG2 cells [4]) [%] | also measured
20 | COc1ccc(CC2=C(C)C(=O)c3ccccc3C2=O)cc1OC [UTA #20] | – | – | – | Extracellular lactate [% control] (HepG2 cells [3]): 78.6 % control
21 | CC1=C(CCCC(=O)N[C@@H](Cc2ccc(O)cc2)C(=O)OC(C)(C)C)C(=O)c2ccccc2C1=O [UTA #55] | 78.6 | 94.8 | – | –
22 | CC1=C(CCCCC(=O)N[C@@H](Cc2ccccc2)C(=O)O)C(=O)c2ccccc2C1=O [UTA #72] | 90.7 | 84.8 | 90.7 | –
23 | CC1=C(CCC(=O)N[C@@H](Cc2ccccc2)C(=O)OC(C)(C)C)C(=O)c2ccccc2C1=O [UTA #65] | 60.1 | 91.1 | – | –
24 | CC1=C(CCCC(=O)N2CCC[C@H]2C(=O)O)C(=O)c2ccccc2C1=O [UTA #43, (S)-1-(4-(3-methyl-1,4-naphthoquinone-2-yl)butanoyl)pyrrolidine-2-carboxylic Acid] | 92.7 | – | 92.7 | –
25 | CC1=CC(=O)c2ccccc2C1=O [Menadione, reference compound] | 64 | 30.6 | 64 | ATP rescue (in words) (HepG2 cells [2]; HepG2, rotenone, comment on Table 4): no or minor effects; Extracellular lactate [% control] (HepG2 cells [3]): 163.3 % control; Effect on lactate production (in words) (HepG2 cells [3]; comment on the lactate table): increase lactate concentrations
26 | CC1=C(CCCC(=O)N2CCC[C@H]2C(=O)OC(C)(C)C)C(=O)c2ccccc2C1=O [UTA #42, (S)-tert-butyl-1-(4-(3-methyl-1,4-naphthoquinone-2-yl)butanoyl)pyrrolidine-2-carboxylate] | 64.7 | – | – | –
27 | COC(=O)[C@@H]1C[C@@H](O)CN1C(=O)CCCC1=C(C)C(=O)c2ccccc2C1=O [UTA #93] | 74.4 | – | – | –
28 | CC1=C(CCCC(=O)N[C@@H](CO)Cc2ccccc2)C(=O)c2ccccc2C1=O [UTA #78] | 80 | – | – | –
29 | CC1=C(CCCC(=O)N[C@H](CO)Cc2ccccc2)C(=O)c2ccccc2C1=O [UTA #62, (S)—N-(1-hydroxy-3-phenylpropan-2-yl)-4-(3-methyl-1,4-naphthyoquinone-2-yl)butanamide] | 93.1 | 91.2 | 93.1 | –
30 | CC1=C(CCCCCC(=O)NCCc2ccc(O)cc2)C(=O)c2ccccc2C1=O [UTA #89] | 85.2 | – | 85.2 | –
31 | CC1=C(CCCCC(=O)NCCc2ccc(O)cc2)C(=O)c2ccccc2C1=O [UTA #88] | 91.8 | – | 91.8 | –
32 | CC1=C(CCCC(=O)N[C@@H](CO)c2ccccc2)C(=O)c2ccccc2C1=O [UTA #80] | 87.6 | – | 87.6 | –
33 | CCCCCCCC1=C(C)C(=O)c2ccccc2C1=O [UTA #21] | – | – | – | Extracellular lactate [% control] (HepG2 cells [3]): 75.6 % control
34 | COC(=O)[C@@H](NC(=O)CCCC1=C(C)C(=O)c2ccccc2C1=O)c1ccccc1 [UTA #95] | 86.1 | – | 86.1 | –
35 | CC1=C(CCCCCC(=O)N[C@@H](Cc2ccccc2)C(=O)OC(C)(C)C)C(=O)c2ccccc2C1=O [UTA #75] | 61.4 | 95.4 | – | –
36 | CC1=C(CCCCCC(=O)O)C(=O)c2ccccc2C1=O [UTA #70] | 66.8 | 91.8 | – | Extracellular lactate [% control] (HepG2 cells [3]): 73.3 % control
37 | CC1=C(CCCC(=O)NCC(=O)OC(C)(C)C)C(=O)c2ccccc2C1=O [UTA #47] | 74.4 | – | – | –
38 | CCCCC1=C(C)C(=O)c2ccccc2C1=O [UTA #19] | – | – | – | Extracellular lactate [% control] (HepG2 cells [3]): 65.3 % control
